In the NIST ThermoML archive (doi:10.1021/je3010062):
Numbers after ± are expanded uncertainties.

Conditions: 101.33 kPa, Liquid; for viscosity: Concentric cylinders viscometry; for mass density: Vibrating tube method; for electrical conductivity: syringe-type cell with a pair of platinum electrodes

CC[N+](C)(C)CCOCCOC.O=S(=O)([N-]S(=O)(=O)C(F)(F)F)C(F)(F)F
Conditions	electrical conductivity [S/m]	mass density [kg/m3]	viscosity [mPa·s]
273.15 K	0.0681 ± 0.0027	1414.1 ± 1.5	243.5 ± 11
278.15 K	0.0936 ± 0.0037	1409.65 ± 1.5	173.6 ± 7.8
283.15 K	0.125 ± 0.005	1404.97 ± 1.5	127.5 ± 5.6
288.15 K	0.162 ± 0.0065	1400.31 ± 1.5	96.35 ± 4.1
293.15 K	0.206 ± 0.0082	1395.68 ± 1.5	74.27 ± 3.1
298.15 K	0.257 ± 0.01	1391.07 ± 1.5	58.57 ± 2.4
303.15 K	0.315 ± 0.013	1386.49 ± 1.5	47.19 ± 1.9
313.15 K	0.451 ± 0.018	1377.4 ± 1.5	32.03 ± 1.3
323.15 K	0.616 ± 0.025	1368.39 ± 1.5	22.89 ± 0.94
333.15 K	0.81 ± 0.032	1359.45 ± 1.4	17.02 ± 0.69
343.15 K	1.02 ± 0.041	1350.57 ± 1.4	13.14 ± 0.54
353.15 K	1.27 ± 0.051	1341.75 ± 1.4	10.39 ± 0.42
363.15 K	–	1332.98 ± 1.4	8.433 ± 0.34

CCCCCCC[N+](C)(C)CC.O=S(=O)([N-]S(=O)(=O)C(F)(F)F)C(F)(F)F
Conditions	electrical conductivity [S/m]	mass density [kg/m3]	viscosity [mPa·s]
273.15 K	0.0157 ± 0.00063	1311.95 ± 1.4	944.3 ± 53
278.15 K	0.023 ± 0.00092	1307.78 ± 1.4	634.1 ± 34
283.15 K	0.0328 ± 0.0013	1303.56 ± 1.4	437.8 ± 22
288.15 K	0.0454 ± 0.0018	1299.38 ± 1.4	310.5 ± 15
293.15 K	0.0614 ± 0.0024	1295.2 ± 1.4	225.7 ± 10
298.15 K	0.081 ± 0.0032	1291 ± 1.4	167.7 ± 7.5
303.15 K	0.105 ± 0.0042	1286.82 ± 1.4	127.6 ± 5.5
313.15 K	0.167 ± 0.0067	1278.51 ± 1.4	77.77 ± 3.3
323.15 K	0.249 ± 0.01	1270.28 ± 1.3	50.63 ± 2.1
333.15 K	0.353 ± 0.014	1262.09 ± 1.3	34.68 ± 1.4
343.15 K	0.48 ± 0.019	1253.97 ± 1.3	24.84 ± 1
353.15 K	0.631 ± 0.025	1245.9 ± 1.3	18.49 ± 0.76
363.15 K	–	1237.87 ± 1.3	14.18 ± 0.58
